What is called IC50 is the midpoint of a concentration-inhibition curve.

In patent US20080312220A1, “Oxadiazole Derivatives with Crth2 Receptor Activity” (priority 2005, published 2008) one finds IC50 data, which are given here for 20 compounds.

The target of one experiment is T1, human CRTH2-Rluc (Homo sapiens, UniProt Q9Y5Y4).
T1 construct: expressed in transfected cells; host or cells: HEK293 cell clone stably expressing βarr2-GFP2 and CRTH2-Rluc
T1 sequence (Q9Y5Y4 1-395): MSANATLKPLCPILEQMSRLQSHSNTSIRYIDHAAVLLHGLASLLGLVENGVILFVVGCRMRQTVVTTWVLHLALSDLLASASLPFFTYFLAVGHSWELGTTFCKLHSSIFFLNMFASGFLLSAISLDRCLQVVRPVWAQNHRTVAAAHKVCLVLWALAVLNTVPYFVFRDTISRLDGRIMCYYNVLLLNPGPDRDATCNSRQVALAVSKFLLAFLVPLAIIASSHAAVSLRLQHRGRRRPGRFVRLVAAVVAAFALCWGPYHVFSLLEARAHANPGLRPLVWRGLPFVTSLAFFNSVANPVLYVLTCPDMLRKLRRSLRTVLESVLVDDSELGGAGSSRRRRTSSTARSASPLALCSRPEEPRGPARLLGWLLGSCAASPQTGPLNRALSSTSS
Nature of the experiment: Functional antagonist BRET assay (CRTH2-Rluc / GFP2-β-arrestin2 in HEK293 cells). The format is cell-based. The following applies: HEK293 cells stably expressing CRTH2-Rluc and GFP2-β-arr2, read-out: Antag. IC50. An excerpt: (§1) Generation/origin of the cDNA Constructs. The coding sequence of the human CRTH2 receptor (genbank accession no NM_004778) was amplified by PCR from a human hippocampus cDNA library and inserted into the pcDNA3.1(+) expression vector (invitrogen) via 5′ HindIII and 3′ EcoRI. To generate a CRTH2-Renilla luciferase (CRTH2-Rluc) fusion protein, the CRTH2 coding sequence without a STOP codon and Rluc were amplified, fused in frame by PCR and subcloned into the pcDNA3.1(+)Zeo expression vector (invitrogen). Human β-arrestin2 (β-arr2) N-terminally tagged with GFP^2 (βarr2-GFP^2) and Renilla luciferase were purchased from BioSignal Packard Inc, (Montreal, Canada). The sequence identity of the construct was verified by restriction endonuclease digests and sequencing in both directions on an ABI Prism (Applied Biosystems, Foster City, Calif.).
(§2) Cell Culture and Transfection. COS-7 cells were grown in Dulbecco's modified Eagle's medium (DMEM) 1885 supplemented with 10% fetal bovine serum, 100 units/ml penicillin, […], and kept at 37° C. in a 10% CO2 atmosphere. HEK293 cells were maintained in Minimum Essential medium (MEM) supplemented with 10% (v/v) heat inactivated fetal calf serum (HIFCS), 2 mM Glutamax™-I, 1% non essential amino acids (NEAA), 1% sodium pyruvate and 10 μg/ml gentamicin. For binding experiments, COS7 cells were transiently transfected with the CRTH2 receptor using a calcium phosphate-DNAcoprecipitation method with the addition of chloroquine (as described by Holst et al., 2001↓). To perform the functional Bioluminescence Resonance Energy Transfer (BRET) assays, a HEK293 cell clone stably expressing Parr2-GFP^2 and CRTH2-Rluc was generated (CRTH2-HEK293 cells).
BRET assay. Functional BRET assays were performed on HEK293 cells stably expressing human CRTH2-Rluc and GFP^2-β-arr2. Prior to their use in the BRET assay cells were detached and re-suspended in D-PBS with 1000 mg/L L-Glucose at a density of 2×10^6 cells/mL. DeepBlueC™ was diluted to 50 μM in D-PBS with 1000 mg/L L-Glucose (light sensitive). 100 μL of cell suspension was transferred to wells in a 96-well microplate (white OptiPlate) and placed in the Mithras LB 940 instrument (BERTHOLD TECHNOLOGIES, Bad Wildbad, Germany). 12 μL/well agonist was then injected by injector 1 and 10 μL/well DeepBlueC™ was injected simultaneously by injector 2. Five seconds after the injections the light output from the well was measured sequentially at 400 nm and 515 nm, and the BRET signal (mBRET ratio) was calculated by the ratio of the fluorescence emitted by GFP^2-β-arr2 (515 nm) over the light emitted by the receptor-Rluc (400 nm). Antagonists were added before placing the microplates into the Mithras LB 940 and allowed to incubate for 15 minutes prior to the addition of agonist and DeepBlueC™. Compounds were dissolved in DMSO and the final DMSO concentration was kept constant at 1% in the assay.
(§3) Curve analysis was performed with the GraphPadPrism software 3.0 (Graphpad Prism Inc., San Diego, USA) and IC50 values were calculated as a measure of the antagonistic potencies.
A general note: Bioluminescence resonance energy transfer reports proximity on the nanometre scale.

For a further experiment, the target named is T2, human CRTH2 receptor (Homo sapiens, UniProt Q9Y5Y4).
T2 construct: expressed in transfected cells; host or cells: COS-7 cells, transient transfection (calcium phosphate)
T2 sequence (Q9Y5Y4 1-395): T1 sequence (Q9Y5Y4 1-395)
Description: Receptor binding assay, competition with [3H]PGD2 on whole transfected cells. The following applies: competition with 0.1 nM [3H]PGD2, whole cells expressing CRTH2.
Excerpt: as §1, §2
Binding assay. 24 h after transfection COS-7 cells were seeded into 96 well plates at a density of 30.000 cells/well. Competition binding experiments on whole cells were then performed about 18-24 h later using 0.1 nM [^3H]PGD2 (NEN, 172 Ci/mmol) in a binding buffer consisting of HBSS (GIBCO) and 10 mM HEPES. Competing ligands were diluted in DMSO which was kept constant at 1% (v/v) of the final incubation volume. Total and nonspecific binding were determined in the absence and presence of 10 μM PGD2. Binding reactions were routinely conducted for 3 h at 4° C. and terminated by 2 washes (100 μl each) with ice cold binding buffer. Radioactivity was determined by liquid scintillation counting in a TOPCOUNTER (Packard) following over night incubation in Microscint 20. Stable HEK293 cells were seeded at a density of 30.000 cells/well 18-24 h prior to the binding assay which was performed essentially as described for COS7 cells above. Determinations were made in duplicates.
as §3

As to `O=C(O)COc1ccc(Br)cc1-c1nc(C2(c3ccccc3)CC2)no1` [Example D1, {4-Bromo-2-[3-(1-phenylcyclopropyl)-[1,2,4]oxadiazol-5-yl]phenoxy}acetic acid], the IC50 on human CRTH2-Rluc and at human CRTH2 receptor was less than 500 nM each time.

Take `CC(=O)N1CCC(c2ccccc2)(c2noc(-c3cc(Br)ccc3OCC(=O)O)n2)CC1` [Example D2, {2-[3-(1-Acetyl-4-phenyl-piperidin-4-yl)-[1,2,4]oxadiazol-5-yl]-4-bromo-phenoxy}-acetic acid]: the half-inhibitory concentration (IC50) on human CRTH2-Rluc and at human CRTH2 receptor was less than 500 nM each time.

As for `O=C(O)COc1ccc(Br)cc1-c1nc(C2(c3ccccc3)CCCCC2)no1` [Example D3, {4-Bromo-2-[3-(1-phenyl-cyclohexyl)-[1,2,4]oxadiazol-5-yl]-phenoxy}-acetic acid], the IC50 at human CRTH2-Rluc and on human CRTH2 receptor was less than 500 nM in each case.

In the case of `O=C(O)COc1ccc(Br)cc1-c1nc(C(c2ccccc2)N2CCOCC2)no1` (stereo not shown) [Example D4], the IC50 at human CRTH2-Rluc and at human CRTH2 receptor was less than 500 nM in each case.

With `O=C(O)COc1ccc(Br)cc1-c1nc(C2(c3ccccc3)CCNCC2)no1` [Example D5, {4-Bromo-2-[3-(4-phenyl-piperidin-4-yl)-[1,2,4]oxadiazol-5-yl]-phenoxy}-acetic acid], the results for the IC50 on human CRTH2-Rluc and on human CRTH2 receptor were 500 to 5000 nM and less than 500 nM, respectively.

Regarding `O=C(O)COc1ccc(Br)cc1-c1nc(C2(c3ccc(F)cc3)CC2)no1` [Example D6, (4-Bromo-2-{3-[1-(4-fluoro-phenyl)-cyclopropyl]-[1,2,4]oxadiazol-5-yl}-phenoxy)-acetic acid], the IC50 at human CRTH2-Rluc and on human CRTH2 receptor was less than 500 nM throughout.

Consider `CCC(=O)N1CCC(c2ccccc2)(c2noc(-c3cc(Br)ccc3OCC(=O)O)n2)CC1` [Example D7, {4-Bromo-2-[3-(4-phenyl-1-propionyl-piperidin-4-yl)-[1,2,4]oxadiazol-5-yl]-phenoxy}-acetic acid], for which the IC50 at human CRTH2-Rluc and at human CRTH2 receptor was less than 500 nM in each case.

Turning to `CC(C)C(=O)N1CCC(c2ccccc2)(c2noc(-c3cc(Br)ccc3OCC(=O)O)n2)CC1` [Example D8, {4-Bromo-2-[3-(1-isobutyryl-4-phenyl-piperidin-4-yl)-[1,2,4]oxadiazol-5-yl]-phenoxy}-acetic acid], the IC50 at human CRTH2-Rluc and at human CRTH2 receptor was less than 500 nM throughout.

Take `O=C(O)COc1ccc(Br)cc1-c1nc(C2(c3ccc(Cl)cc3Cl)CC2)no1` [Example D9, (4-Bromo-2-{3-[1-(2,4-dichloro-phenyl)-cyclopropyl]-[1,2,4]oxadiazol-5-yl}-phenoxy)-acetic acid]: the IC50 at human CRTH2-Rluc and at human CRTH2 receptor was less than 500 nM each time.

For the compound `CS(=O)(=O)N1CCC(c2ccccc2)(c2noc(-c3cc(Br)ccc3OCC(=O)O)n2)CC1` [Example D10, {4-Bromo-2-[3-(1-methanesulfonyl-4-phenyl-piperidin-4-yl)-[1,2,4]oxadiazol-5-yl]-phenoxy}-acetic acid], the IC50 at human CRTH2-Rluc and at human CRTH2 receptor was less than 500 nM in each case.

Consider `CN1CCC(c2ccccc2)(c2noc(-c3cc(Br)ccc3OCC(=O)O)n2)CC1` [Example D11, {4-Bromo-2-[3-(1-methyl-4-phenyl-piperidin-4-yl)-[1,2,4]oxadiazol-5-yl]-phenoxy}-acetic acid], for which the IC50 at human CRTH2-Rluc and on human CRTH2 receptor was less than 500 nM throughout.

On to `O=C(O)COc1ccc(Br)cc1-c1nc(C2(c3ccccc3)CCN(C(=O)C3CC3)CC2)no1` [Example D12, {4-Bromo-2-[3-(1-cyclopropanecarbonyl-4-phenyl-piperidin-4-yl)-[1,2,4]oxadiazol-5-yl]-phenoxy}-acetic acid], for which the IC50 at human CRTH2-Rluc and on human CRTH2 receptor was less than 500 nM throughout.

As to `O=C(O)COc1ccc(Br)cc1-c1nc(C2(c3c(Cl)cccc3Cl)CC2)no1` [Example D13, (4-Bromo-2-{3-[1-(2,6-dichloro-phenyl)-cyclopropyl]-[1,2,4]oxadiazol-5-yl}-phenoxy)-acetic acid], the IC50 on human CRTH2-Rluc and on human CRTH2 receptor was less than 500 nM each time.

`O=C(O)COc1ccc(Br)cc1-c1nc(C2(c3ccccc3)CCC2)no1` [Example D14, {4-Bromo-2-[3-(1-phenyl-cyclobutyl)-[1,2,4]oxadiazol-5-yl]-phenoxy}-acetic acid]: the IC50 on human CRTH2-Rluc and on human CRTH2 receptor was less than 500 nM each time.

For the compound `O=C(O)COc1ccc(Br)cc1-c1nc(C2(c3ccccc3)CCN(S(=O)(=O)C3CC3)CC2)no1` [Example D15, {4-Bromo-2-[3-(1-cyclopropanesulfonyl-4-phenyl-piperidin-4-yl)-[1,2,4]oxadiazol-5-yl]-phenoxy}-acetic acid], the IC50 on human CRTH2-Rluc and at human CRTH2 receptor was less than 500 nM in each case.

Turning to `COC(=O)N1CCC(c2ccccc2)(c2noc(-c3cc(Br)ccc3OCC(=O)O)n2)CC1` [Example D16, 4-[5-(5-Bromo-2-carboxymethoxy-phenyl)-[1,2,4]oxadiazol-3-yl]-4-phenyl-piperidine-1-carboxylic acid methyl ester], the IC50 at human CRTH2-Rluc and at human CRTH2 receptor was less than 500 nM in each case.

As to `CC(=O)OCC(=O)N1CCC(c2ccccc2)(c2noc(-c3cc(Br)ccc3OCC(=O)O)n2)CC1` [Example D17, (2-{3-[1-(2-Acetoxy-acetyl)-4-phenyl-piperidin-4-yl]-[1,2,4]oxadiazol-5-yl}-4-bromo-phenoxy)-acetic acid], the IC50 on human CRTH2-Rluc and on human CRTH2 receptor was less than 500 nM each time.

As to `O=C(O)COc1ccc(Br)cc1-c1nc(C2(c3ccccc3)CCN(C(=O)CO)CC2)no1` [Example D18, (4-Bromo-2-{3-[1-(2-hydroxy-acetyl)-4-phenyl-piperidin-4-yl]-[1,2,4]oxadiazol-5-yl}-phenoxy)-acetic acid], the IC50 at human CRTH2-Rluc and at human CRTH2 receptor was less than 500 nM in each case.

`CS(=O)(=O)N1CCC(c2ccc(F)cc2)(c2noc(-c3cc(Br)ccc3OCC(=O)O)n2)CC1` [Example D19, (4-Bromo-2-{3-[4-(4-fluoro-phenyl)-1-methanesulfonyl-piperidin-4-yl]-[1,2,4]oxadiazol-5-yl}-phenoxy)-acetic acid]: the IC50 on human CRTH2-Rluc and at human CRTH2 receptor was less than 500 nM each time.

For `O=C(O)COc1ccc(Br)cc1-c1nc(C(c2ccc(F)cc2)N2CCS(=O)(=O)CC2)no1` (stereo not shown) [Example D20, (4-Bromo-2-{3-[(1,1-dioxo-1lambda*6*-thiomorpholin-4-yl)-(4-fluoro-phenyl)-methyl]-[1,2,4]oxadiazol-5-yl}-phenoxy)-acetic acid], the IC50 at human CRTH2-Rluc and on human CRTH2 receptor was less than 500 nM each time.
